The source of these data is US11667649B2, “Heteroaromatic macrocyclic ether chemotherapeutic agents” (Nuvalent, Inc., priority 2020, dated 2023).

In one assay the target is T1, ROS1-wt kinase domain (Homo sapiens, UniProt P08922).
T1 construct: TRKA-wt (1 nM, BPS Bio, 40280) kinase domains in buffer; purchased Carna 08-163
As to the kind of experiment: Biochemical kinase assay, ROS1-wt. Conditions: 2 mM ATP substrate solution, read-out: Ki^app ROS1-wt. As to the method: (§1) First, 250 nL of compound dissolved in DMSO (100-fold of the desired concentration) was dispensed into a 384-well plate. A 12.5 μL substrate solution containing ATP (2 mM) and fluorogenic phosphorylation substrate AQT0101 (26 μM for ALK and ROS1, AssayQuant) or AQT0104 (26 μM for TRKA, AssayQuant) in buffer (50 mM HEPES pH 7.5, 0.01% Brij-35, 0.5 mM EGTA, 10 mM MgCl2) was added and mixed thoroughly. Then, a 12.5 μL kinase solution containing ALK-wt (1.5 nM, Carna, 08-518), ALK ALK L1196M/G1202R (3 nM, SignalChem, A19-12NG), ROS1-wt (0.6 nM, Carna, 08-163), ROS1-G2032R (0.5 nM, SignalChem, R14-12BG), or TRKA-wt (1 nM, BPS Bio, 40280) kinase domains in buffer ([…] HEPES pH 7.5, 0.01% Brij-35, 2% glycerol, 0.4 mg/mL BSA, 0.5 mM EGTA, and 10 mM MgCl2) was added and mixed thoroughly. The plate was sealed and read by SpectraMax Paradigm at λ=485 nm every 2 minutes for 120 minutes at 30° C. Initial rates of reaction (v) were calculated from the change in fluorescence intensity over time during the initial, linear portion of the reaction. Finally, apparent inhibitory constants (Ki^app) were determined from regression of v and I (inhibitor concentration) to Morrison Equation (E=enzyme concentration): […]

A further assay concerns the target T2, TRKA-wt kinase domain (Homo sapiens, UniProt P04629).
T2 construct: TRKA-wt (1 nM, BPS Bio, 40280) kinase domains in buffer; purchased BPS Bio 40280
Nature of the assay: Biochemical kinase assay, TRKA-wt. Conditions: 2 mM ATP substrate solution, read-out: Ki^app TRKA-wt. As to the method:
as §1

For another assay, the target named is T3, ALK-wt kinase domain (Homo sapiens, UniProt Q9UM73).
T3 construct: TRKA-wt (1 nM, BPS Bio, 40280) kinase domains in buffer; purchased Carna 08-518
As to the kind of experiment: Biochemical kinase assay, ALK-wt. The settings on record: 2 mM ATP substrate solution, read-out: Ki^app ALK-wt. As to the method:
as §1

The target in assay [1] is T4, ROS1-G2032R kinase domain (Homo sapiens, UniProt P08922, G2032R).
T4 construct: TRKA-wt (1 nM, BPS Bio, 40280) kinase domains in buffer; purchased SignalChem R14-12BG
Nature of the assay: Biochemical kinase assay, ROS1-G2032R. Conditions: 2 mM ATP substrate solution, read-out: Ki^app ROS1-G2032R. How it is done: as §1

The target of assay [2] is T5, ALK L1196M/G1202R kinase domain (Homo sapiens, UniProt Q9UM73, G1202R/L1196M).
T5 construct: TRKA-wt (1 nM, BPS Bio, 40280) kinase domains in buffer; purchased SignalChem A19-12NG
Nature of the assay: Biochemical kinase assay, ALK L1196M/G1202R. Conditions: 2 mM ATP substrate solution, read-out: Ki^app ALK-L1196M-G1202R. As to the method:
as §1

Where only a bound is given, the exact number is not on record here.

Consider `C[C@H]1Oc2cc(cnc2N)-c2c(C#N)nnn2Cc2cccnc2-c2ccc(F)cc21` [Compound 25], for which the Ki is less than 50 nM on ROS1-wt kinase domain; greater than 500 nM on TRKA-wt kinase domain; less than 50 nM at ALK-wt kinase domain; 50 to 500 nM in assay [1]; 50 to 500 nM in assay [2].
As for `C[C@H]1Oc2cc(cnc2N)-c2c(C3CCC3)noc2Cc2cn(C)nc2-c2ccc(F)cc21` [Compound 26], the Ki was less than 50 nM on ROS1-wt kinase domain; 50 to 500 nM at TRKA-wt kinase domain; less than 50 nM at ALK-wt kinase domain; less than 50 nM in assay [1]; less than 50 nM in assay [2].
Consider `C[C@H]1Oc2cc(cnc2N)-c2c(cnn2CC(F)(F)F)Cc2cn(C)nc2-c2ccc(F)cc21` [Compound 27], for which the Ki at ROS1-wt kinase domain is less than 50 nM; on TRKA-wt kinase domain, greater than 500 nM; on ALK-wt kinase domain it was less than 50 nM; in assay [1], less than 50 nM; in assay [2] it was less than 50 nM.
Take `CCn1ncc2c1-c1cnc(N)c(c1)O[C@H](C)c1cc(F)ccc1-c1nn(C)c(Cl)c1C2` [Compound 28]: the Ki (on ROS1-wt kinase domain; on TRKA-wt kinase domain; at ALK-wt kinase domain; in assay [1]; in assay [2]) was less than 50 nM throughout.
For the molecule `C[C@H]1Oc2cc(cnc2N)-c2c(nnn2CC2CC2)Cc2cn(C)nc2-c2ccc(F)cc21` [Compound 29], the Ki at ROS1-wt kinase domain was less than 50 nM; on TRKA-wt kinase domain, 50 to 500 nM; on ALK-wt kinase domain it was less than 50 nM; in assay [1], less than 50 nM; in assay [2] it was less than 50 nM.
For `CCc1noc2c1-c1cnc(N)c(c1)OCc1cc(F)ccc1-c1nn(C)cc1C2` [Compound 30], the Ki on ROS1-wt kinase domain is less than 50 nM; on TRKA-wt kinase domain it was greater than 500 nM; on ALK-wt kinase domain, less than 50 nM; in assay [1], 50 to 500 nM; in assay [2] it was less than 50 nM.
`CCn1ncc2c1-c1cnc(N)c(c1)O[C@H](C)c1cc(F)ccc1-c1nccn1C2` [Compound 31]: the Ki (on ROS1-wt kinase domain; on TRKA-wt kinase domain; on ALK-wt kinase domain; in assay [1]; in assay [2]) was less than 50 nM throughout.
Take `CCn1ncc2c1-c1cnc(N)c(c1)O[C@H](C)c1cc(F)ccc1-n1nccc1C2` [Compound 33]: the Ki (at ROS1-wt kinase domain; at TRKA-wt kinase domain; at ALK-wt kinase domain; in assay [1]; in assay [2]) was less than 50 nM in each case.
For `CCn1ncc2c1-c1cnc(N)c(c1)OCc1cc(F)ccc1-c1nccn1C2` [Compound 34], the Ki on ROS1-wt kinase domain was less than 50 nM; at TRKA-wt kinase domain, greater than 500 nM; at ALK-wt kinase domain it was less than 50 nM; in assay [1] it was 50 to 500 nM; in assay [2] it was less than 50 nM.
For `CCn1ncc2c1-c1cnc(N)c(c1)OC(C)c1cc(F)ccc1-c1ccncc1C2` (stereo not shown) [Compound 36], the Ki was less than 50 nM at ROS1-wt kinase domain; 50 to 500 nM on TRKA-wt kinase domain; less than 50 nM at ALK-wt kinase domain; less than 50 nM in assay [1]; less than 50 nM in assay [2].
For `CC1Oc2cc(cnc2N)-c2c(cnn2C2CCC2)Cn2ccnc2-c2ccc(F)cc21` (stereo not shown) [Compound 37], the Ki on ROS1-wt kinase domain is less than 50 nM; on TRKA-wt kinase domain it was 50 to 500 nM; at ALK-wt kinase domain, less than 50 nM; in assay [1], less than 50 nM; in assay [2], less than 50 nM.
Regarding `CCn1ncc2c1-c1cnc(N)c(c1)OC(C)c1cc(F)ccc1-n1cncc1C2` (stereo not shown) [Compound 38], the Ki on ROS1-wt kinase domain is less than 50 nM; at TRKA-wt kinase domain it was greater than 500 nM; on ALK-wt kinase domain, less than 50 nM; in assay [1] it was less than 50 nM; in assay [2] it was 50 to 500 nM.
Regarding `CC1Oc2cc(cnc2N)-c2c(cnn2CCF)Cn2ccnc2-c2ccc(F)cc21` (stereo not shown) [Compound 39], the Ki was less than 50 nM at ROS1-wt kinase domain; greater than 500 nM on TRKA-wt kinase domain; less than 50 nM at ALK-wt kinase domain; less than 50 nM in assay [1]; 50 to 500 nM in assay [2].
Consider `CC1Oc2cc(cnc2N)-c2c(cnn2CC(F)F)Cn2ccnc2-c2ccc(F)cc21` (stereo not shown) [Compound 40], for which the Ki on ROS1-wt kinase domain was less than 50 nM; on TRKA-wt kinase domain, greater than 500 nM; on ALK-wt kinase domain it was less than 50 nM; in assay [1] it was less than 50 nM; in assay [2], 50 to 500 nM.
